Data as given in ChEMBL document CHEMBL1153018, “Synthesis of pochoxime prodrugs as potent HSP90 inhibitors” (Bioorg Med Chem Lett, 2009).
Activity calls are given as the source filed them. No cut-off for these calls is given here.

Experiments:
[1] = test system: Mus musculus; assay: Toxicity in ICR-SCID mouse heart assessed as […] level at 150 mg/kg administered 3 times per week for 4 weeks measured after 24 hrs of last dose relative to untreated control; assay type: organism-based; set-up: dose 150 mg/kg; details: in vivo
[2] = test system: Mus musculus; assay: Toxicity in ICR-SCID mouse heart assessed as cholesterol level at 100 mg/kg administered 3 times per week for 4 weeks measured after 24 hrs of last dose relative to untreated control; assay type: organism-based; set-up: dose 100 mg/kg; details: in vivo
[3] = test system: Mus musculus; assay: Toxicity in ICR-SCID mouse heart assessed as cholesterol level at 150 mg/kg administered 3 times per week for 4 weeks measured after 24 hrs of last dose relative to untreated control; assay type: organism-based; set-up: dose 150 mg/kg; details: in vivo
[4] = test system: PC-3; assay: Growth inhibition of human PC3 cells assessed as ATP level after 4 days; assay type: functional, cell-based
[5] = Half life in ICR-SCID mouse; assay type: ADME, organism-based; details: in vivo
[6] = Drug level in tumor of human BT474 cells xenografted in ICR-SCID mouse at 100 mg/kg, ip administered after 3 weeks tumor implantation measured after 6 hrs; assay type: ADME, organism-based, Neoplasm, BT-474; set-up: dose 100 mg/kg, route intraperitoneal; details: tumor (human BT474 xenograft), read-out: Drug uptake
[7] = Drug level in tumor of human BT474 cells xenografted in ICR-SCID mouse at 100 mg/kg, ip administered after 3 weeks tumor implantation measured after 24 hrs; assay type: ADME, organism-based, Neoplasm, BT-474; set-up: dose 100 mg/kg, route intraperitoneal; details: tumor (human BT474 xenograft), read-out: Drug uptake
[8] = Drug level in tumor of human BT474 cells xenografted in ICR-SCID mouse at 150 mg/kg, ip administered after 3 weeks tumor implantation measured after 6 hrs; assay type: ADME, organism-based, Neoplasm, BT-474; set-up: dose 150 mg/kg, route intraperitoneal; details: tumor (human BT474 xenograft), read-out: Drug uptake
[9] = Growth inhibition of human MDA231 cells assessed as ATP level after 4 days; assay type: functional; details: MDA-MB-231, 96 h
[10] = test system: MDA-MB-468; assay: Growth inhibition of human MDA-MB-468 cells assessed as ATP level after 4 days; assay type: functional; details: MDA-MB-468, 96 h
[11] = test system: K562; assay: Growth inhibition of human K562 cells assessed as ATP level after 4 days; assay type: functional; details: K562, 96 h
[12] = test system: MV4-11; assay: Growth inhibition of human MV4-11 cells assessed as ATP level after 4 days; assay type: functional; details: MV4-11, 96 h
[13] = test system: HCT-116; assay: Growth inhibition of human HCT116 cells assessed as ATP level after 4 days; assay type: functional; details: HCT-116, 96 h
[14] = test system: NCI-H1975; assay: Growth inhibition of human tarceva and iressa-resistant NCI-H1975 cells assessed as ATP level after 4 days; assay type: functional; details: NCI-H1975, 96 h
[15] = test system: HCC827; assay: Induction of mutant EGFR degradation in human tarceva and iressa-resistant HCC827 cells at 20 to 500 nM by Western blotting; assay type: functional, cell-based
[16] = test system: HCC827; assay: Induction of mutant p-Akt degradation in human tarceva and iressa-resistant HCC827 cells at 20 to 500 nM by Western blotting; assay type: functional, cell-based
[17] = test system: HCC827; assay: Induction of mutant Cdk4 degradation in human tarceva and iressa-resistant HCC827 cells at 20 to 500 nM by Western blotting; assay type: functional, cell-based
[18] = test system: NCI-H1975; assay: Induction of mutant Met degradation in human tarceva and iressa-resistant NCI-H1975 cells at 20 to 500 nM by Western blotting; assay type: functional, cell-based
[19] = test system: NCI-H1975; assay: Induction of mutant p-Akt degradation in human tarceva and iressa-resistant NCI-H1975 cells at 20 to 500 nM by Western blotting; assay type: functional, cell-based
[20] = test system: NCI-H1975; assay: Induction of mutant Cyclin D degradation in human tarceva and iressa-resistant NCI-H1975 cells at 20 to 500 nM by Western blotting; assay type: functional, cell-based
[21] = Bioavailability in […] dosed mouse; assay type: ADME, organism-based; details: in vivo
[22] = Oral bioavailability in mouse; assay type: ADME, organism-based; details: in vivo
[23] = Drug level in tumor of human BT474 cells xenografted in ICR-SCID mouse at 200 mg/kg, ip administered after 3 weeks tumor implantation measured after 24 hrs; assay type: ADME, organism-based, Neoplasm, BT-474; set-up: dose 200 mg/kg, route intraperitoneal; details: tumor (human BT474 xenograft), read-out: Drug uptake
[24] = Drug level in tumor of human BT474 cells xenografted in ICR-SCID mouse at 200 mg/kg, ip administered after 3 weeks tumor implantation measured after 48 hrs; assay type: ADME, organism-based, Neoplasm, BT-474; set-up: dose 200 mg/kg, route intraperitoneal; details: tumor (human BT474 xenograft), read-out: Drug uptake
[25] = test system: BT-474; assay: Induction of HER2 degradation in human BT474 cells xenografted in ICR-SCID mouse at 100 mg/kg, ip administered after 3 weeks tumor implantation after 6 to 48 hrs by Western blotting; assay type: functional, organism-based; set-up: dose 100 mg/kg
[26] = test system: BT-474; assay: Induction of p-HER2 degradation in human BT474 cells xenografted in ICR-SCID mouse at 100 mg/kg, ip administered after 3 weeks tumor implantation after 6 to 48 hrs by Western blotting; assay type: functional, organism-based; set-up: dose 100 mg/kg
[27] = test system: BT-474; assay: Induction of AKT degradation in human BT474 cells xenografted in ICR-SCID mouse at 100 mg/kg, ip administered after 3 weeks tumor implantation after 6 to 48 hrs by Western blotting; assay type: functional, organism-based; set-up: dose 100 mg/kg
[28] = test system: BT-474; assay: Induction of c-Raf degradation in human BT474 cells xenografted in ICR-SCID mouse at 100 mg/kg, ip administered after 3 weeks tumor implantation after 6 to 48 hrs by Western blotting; assay type: functional, organism-based; set-up: dose 100 mg/kg
[29] = test system: BT-474; assay: Induction of Cyclin D degradation in human BT474 cells xenografted in ICR-SCID mouse at 100 mg/kg, ip administered after 3 weeks tumor implantation after 6 to 48 hrs by Western blotting; assay type: functional, organism-based; set-up: dose 100 mg/kg
[30] = test system: BT-474; assay: Induction of Cdk4 degradation in human BT474 cells xenografted in ICR-SCID mouse at 100 mg/kg, ip administered after 3 weeks tumor implantation after 6 to 48 hrs by Western blotting; assay type: functional, organism-based; set-up: dose 100 mg/kg
[31] = test system: BT-474; assay: Induction of HSP70 degradation in human BT474 cells xenografted in ICR-SCID mouse at 100 mg/kg, ip administered after 3 weeks tumor implantation after 6 to 48 hrs by Western blotting; assay type: functional, organism-based; set-up: dose 100 mg/kg
[32] = test system: Mus musculus; assay: Hepatotoxicity in ICR-SCID mouse liver assessed as aspartate aminotransferase level at 150 mg/kg administered 3 times per week for 4 weeks measured after 24 hrs of last dose relative to untreated control; assay type: toxicity, organism-based; set-up: dose 150 mg/kg; details: in vivo
[33] = test system: Mus musculus; assay: Hepatotoxicity in ICR-SCID mouse liver assessed as alkaline phosphatase level at 100 mg/kg administered 3 times per week for 4 weeks measured after 24 hrs of last dose relative to untreated control; assay type: toxicity, organism-based; set-up: dose 100 mg/kg; details: in vivo
[34] = test system: Mus musculus; assay: Hepatotoxicity in ICR-SCID mouse liver assessed as bilirubin level at 100 mg/kg administered 3 times per week for 4 weeks measured after 24 hrs of last dose relative to untreated control; assay type: toxicity, organism-based; set-up: dose 100 mg/kg; details: in vivo
[35] = test system: Mus musculus; assay: Toxicity in ICR-SCID mouse kidney assessed as BUN level at 100 mg/kg administered 3 times per week for 4 weeks measured after 24 hrs of last dose relative to untreated control; assay type: organism-based; set-up: dose 100 mg/kg; details: in vivo
[36] = test system: Mus musculus; assay: Toxicity in ICR-SCID mouse kidney assessed as BUN level at 150 mg/kg administered 3 times per week for 4 weeks measured after 24 hrs of last dose relative to untreated control; assay type: organism-based; set-up: dose 150 mg/kg; details: in vivo
[37] = test system: Mus musculus; assay: Toxicity in ICR-SCID mouse kidney assessed as creatinine level at 100 mg/kg administered 3 times per week for 4 weeks measured after 24 hrs of last dose relative to untreated control; assay type: organism-based; set-up: dose 100 mg/kg; details: in vivo
[38] = test system: Mus musculus; assay: Toxicity in ICR-SCID mouse kidney assessed as creatinine level at 150 mg/kg administered 3 times per week for 4 weeks measured after 24 hrs of last dose relative to untreated control; assay type: organism-based; set-up: dose 150 mg/kg; details: in vivo
[39] = biological target: Heat shock protein HSP 90-alpha (Homo sapiens) (UniProt P07900)
Description: Binding affinity to human HSP90alpha

half-life [5]: 2.5 h
concentration at 6 h [6]: 5490 ng/g
concentration at 24 h [7]: 4020 ng/g
concentration at 6 h [8]: 6180 ng/g
GI50 [10]: 9 nM
GI50 [11]: 6 nM
GI50 [12]: 3 nM
GI50 [13]: 9 nM
GI50 [14]: 25 nM
bioavailability [21]: 60.5%
bioavailability [22]: 3.4%
concentration at 24 h [23]: 10200 ng/g
concentration at 48 h [24]: 4020 ng/g
GI50 [39]: 21 nM
Structure (SMILES): O=C1OCC/C=C/CC/C=C/C(=N/OCC(=O)N2CCCCC2)Cc2c(Cl)c(O)cc(O)c21 [POCHOXIME A]
Activity [1]: 31 U/L
Activity [2]: 168 mg/dL
Activity [3]: 119 mg/dL
Activity [4]: Active
GI50 [9]: 7 nM
Activity [15]: Active
Activity [16]: Active
Activity [17]: Active
Activity [18]: Active
Activity [19]: Active
Activity [20]: Active
Activity [25]: Active
Activity [26]: Active
Activity [27]: Active
Activity [28]: Active
Activity [29]: Active
Activity [30]: Active
Activity [31]: Active
Activity [32]: 191 U/L
Activity [33]: 51.3 U/L
Activity [34]: 0.2 mg/dL
Activity [35]: 20 mg/dL
Activity [36]: 19 mg/dL
Activity [37]: 0.2 mg/dL
Activity [38]: 0.2 mg/dL
